From PubChem BioAssay AID1963843 (Molecular Pharmacology Branch, DTP, NCI, 2024)
Where “and” joins values, the source holds several entries; their conditions need not be identical. Identical values can stand only once.

Test system: 616215-338-R-J1-PDC complex spheroid viability
Test: Anticancer human tumor 616215-338-R-J1-PDC patient-derived colon adenocarcinoma cell line growth inhibition [POLQ]
Details: for viability, T/C: stronger effect = lower value
Protocol: Multicellular complex tumor spheroid response to Polymerase (POL) inhibitors (novobiocin, ART-558, RP6685) in combination with a variety of drugs and investigational agents in selected tumor cell lines
The POL inhibitors (novobiocin, ART-558, and RP6685) were evaluated both individually and in combination with standard of care and investigational anticancer small molecules within a complex spheroid model of solid tumors. . Complex spheroids include a stromal component modeled by human endothelial cells (HUVEC) and fibroblasts modeled by human mesenchymal stem cells (MSCs). The concentration ranges selected for each drug and investigational agent were based upon clinically achievable concentrations if the clinical Cmax of the agent was known.
Compounds. The drugs and investigational agents: novobiocin (NSC847541), ART-558 (NSC835418), RP-6685 (NSC848927), peposertib (NSC802822), ceralasertib (NSC780249), elimusertib (NSC800525), camonsertib (NSC841442), AZD-1390 (NSC803789), olaparib (NSC753686), talazoparib (NSC767125), rucaparib (NSC756644), sotorasib (NSC818433), MRTX-1133 (NSC836407), SN-38 (NSC673596), topotecan (NSC609699), epotoside (NSC141540), doxorubicin (NSC123127), gemcitabine (NSC613327), 5-fluorouracil (NSC19893), paclitaxel (NSC125973), vemurafenib (NSC761431), MSA-2 (NSC828583), SN-011 (NSC837082), adavosertib (NSC754352), prexasertib (NSC758257), carboplatin (NSC241240) and oxaliplatin (NSC266046), were obtained from the National Cancer Institute (NCI) Developmental Therapeutics Program Chemical Repository (21). The FDA-approved anticancer drug set is available from the Developmental Therapeutics Program at https://dtp.cancer.gov/organization/dscb/obtaining/. […] The stock solutions were prepared in dimethyl sulfoxide (DMSO, Sigma-Aldrich, St. Louis, MO, cat. D2650), except for the platinum compounds which were prepared in saline (Quality Biological, Gaithersburg, MD, cat. 114-055-101), at 800-fold the tested concentration and stored at -70 degrees C prior to their use. All drugs and investigational agents were tested over a range starting from a high concentration at or near the clinical Cmax and decreasing in half-log increments. If the clinical Cmax for an agent had not been determined, the highest concentration tested was 10 microM, except for SN-38, which was tested at a high concentration of 1 microM.
Cell Culture. All cells were maintained in an incubator at 37 degrees C and 5% CO2 with 95% humidity. The PDC lines were cultured according to standard operating procedures established by the NCI PDMR (https://pdmr.cancer.gov). Table 3 of the manuscript, lists the cell lines along with the number of the three cell types plated to form the mct-spheroids and media for tumor cell growth. After thawing, all PDC lines, except 997537-175-T-J1-PDC and 415267-285-R-J2-PDC, were cultured in Matrigel-coated flasks prepared with a working solution of 1X Ham's F-12 nutrient mix, without supplementation (Thermo Fisher Scientific, cat. 11765054), 100 U/mL penicillin-streptomycin (Thermo Fisher Scientific, cat. 15140122), and 2.5% Matrigel (Corning Inc., Corning, NY, cat. 354248) for the first three passages. The two PDC lines 997537-175-T-J1-PDC and 415267-285-R-J2-PDC were cultured on uncoated flasks. The 857933-349-R-J2-PDC line was cultured in 6C/Colon 1B media containing advanced DMEM/F-12 (Thermo Fisher Scientific, cat. 12634028), 10 mM HEPES (Thermo Fisher Scientific, cat. 15630080), 1X GlutaMAX supplement (Thermo Fisher Scientific, cat. 35050061), 0.1 mg/mL primocin (InvivoGen, San Diego, CA, cat. ant-pm-2), 10% defined fetal bovine serum, heat inactivated (HyClone Laboratories Inc., Logan, UT, cat. SH30070.03HI), 50% L-WRN conditioned media (ATCC, cat. CRL-3276), 1.25 mM N-Acetyl-L-cysteine (Sigma-Aldrich, cat. A9165), 10 mM nicotinamide (Sigma-Aldrich, cat. N0636), 1X B-27 supplement (Thermo Fisher Scientific, cat. 17504044), 1X N-2 supplement (Thermo Fisher Scientific, cat. […]
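Note: spheroids exposed to compounds for one week before readout.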
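Throughout, for viability, T/C: percent viability relative to DMSO vehicle wells taken as 100%.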

C=CCn1c(=O)c2cnc(Nc3ccc(N4CCN(C)CC4)cc3)nc2n1-c1cccc(C(C)(C)O)n1
viability, T/C (compound 0.00316 µM): 98.4% and 98.6% and 104% | viability, T/C (compound 0.01 µM): 101% and 96.2% and 96.8% | viability, T/C (compound 0.0316 µM): 105% and 102% and 99.9% | viability, T/C (compound 0.1 µM): 93.8% and 88.6% and 96.6% | viability, T/C (compound 0.316 µM): 88.4% and 64% and 54.5% | viability, T/C (compound 1 µM): 60.4% and 31.4% and 34.6% | IC50 (curve of compound): > 1000 nM and 516 nM and 410 nM

O=c1[nH]cc(F)c(=O)[nH]1
viability, T/C (compound 0.0316 µM): 83.7% and 97.8% and 96% | viability, T/C (compound 0.1 µM): 96.6% and 86.5% and 89.8% | viability, T/C (compound 0.316 µM): 68.4% and 54.6% and 65.8% | viability, T/C (compound 1 µM): 65.9% and 43.5% and 65.6% | viability, T/C (compound 3.16 µM): 63.8% and 43.7% and 60.7% | viability, T/C (compound 10 µM): 62.4% and 39.2% and 60.1%

Nc1ccn(C2OC(CO)C(O)C2(F)F)c(=O)n1 (stereo not drawn)
viability, T/C (compound 0.0316 µM): 49.9% and 23.8% and 51.6% | viability, T/C (compound 0.1 µM): 31.7% and 15.1% and 34.2% | viability, T/C (compound 0.316 µM): 23.7% and 12.2% and 23.2% | viability, T/C (compound 1 µM): 30.1% and 13.1% and 30.2% | viability, T/C (compound 3.16 µM): 31.8% and 14.3% and 32.1% | viability, T/C (compound 10 µM): 34.7% and 16.4% and 33.6% | IC50 (curve of compound): < 31.6 nM

Cn1ncnc1[C@H]1c2n[nH]c(=O)c3cc(F)cc(c23)N[C@@H]1c1ccc(F)cc1
viability, T/C (compound 0.000316 µM): 90.3% and 102% and 97.5% | viability, T/C (compound 0.001 µM): 104% and 91.8% and 103% | viability, T/C (compound 0.00316 µM): 102% and 98.1% and 97.2% | viability, T/C (compound 0.01 µM): 94% and 95.9% and 104% | viability, T/C (compound 0.0316 µM): 110% and 96.1% and 101% | viability, T/C (compound 0.1 µM): 105% and 87.5% and 106% | IC50 (curve of compound): > 100 nM

CC1COCCN1c1cc(-c2ccnn2C)c2ccnc(-c3ccn[nH]3)c2n1 (stereo not drawn)
viability, T/C (compound 0.0316 µM): 95.3% and 98.7% and 94% | viability, T/C (compound 0.1 µM): 102% and 90.3% and 66% | viability, T/C (compound 0.316 µM): 73.7% and 70.5% and 39.4% | viability, T/C (compound 1 µM): 60.4% and 47.1% and 31.4% | viability, T/C (compound 3.16 µM): 50% and 27.1% and 28.4% | viability, T/C (compound 10 µM): 44.6% and 40.1% and 21.7%

Nc1ccn(C2OC(CO)C(O)C2(F)F)c(=O)n1 (stereo not drawn) + Cc1cccc(N(C)C(=O)C2C(O)CCN2c2nc(C)cc(C(F)(F)F)c2C#N)c1
IC50 (curve of first compound, second compound 0.0316 µM): 42.3 nM | IC50 (curve of first compound, second compound 0.1 µM): 53.6 nM | IC50 (curve of first compound, second compound 0.316 µM): 58 nM | IC50 (curve of first compound, second compound 1 µM): 49.8 nM | IC50 (curve of first compound, second compound 3.16 µM): 57.5 nM | IC50 (curve of first compound, second compound 10 µM): 59.3 nM | viability, T/C (second compound 0.0316 µM, first compound 0.0316 µM): 55.2% | viability, T/C (second compound 0.0316 µM, first compound 0.1 µM): 36.6% | viability, T/C (second compound 0.0316 µM, first compound 0.316 µM): 22.8% | viability, T/C (second compound 0.0316 µM, first compound 1 µM): 30.8% | viability, T/C (second compound 0.0316 µM, first compound 3.16 µM): 29.6% | viability, T/C (second compound 0.0316 µM, first compound 10 µM): 27% | viability, T/C (second compound 0.1 µM, first compound 0.0316 µM): 62.2% | viability, T/C (second compound 0.1 µM, first compound 0.1 µM): 37.8% | viability, T/C (second compound 0.1 µM, first compound 0.316 µM): 23.4% | viability, T/C (second compound 0.1 µM, first compound 1 µM): 28.1% | viability, T/C (second compound 0.1 µM, first compound 3.16 µM): 40.2% | viability, T/C (second compound 0.1 µM, first compound 10 µM): 28.8% | viability, T/C (second compound 0.316 µM, first compound 0.0316 µM): 66.7% | viability, T/C (second compound 0.316 µM, first compound 0.1 µM): 36.1% | viability, T/C (second compound 0.316 µM, first compound 0.316 µM): 26% | viability, T/C (second compound 0.316 µM, first compound 1 µM): 25.7% | viability, T/C (second compound 0.316 µM, first compound 3.16 µM): 34.4% | viability, T/C (second compound 0.316 µM, first compound 10 µM): 28.9% | viability, T/C (second compound 1 µM, first compound 0.0316 µM): 61.9% | viability, T/C (second compound 1 µM, first compound 0.1 µM): 32.2% | viability, T/C (second compound 1 µM, first compound 0.316 µM): 25.4% | viability, T/C (second compound 1 µM, first compound 1 µM): 28.8% | viability, T/C (second compound 1 µM, first compound 3.16 µM): 26.7% | viability, T/C (second compound 1 µM, first compound 10 µM): 27.1% | viability, T/C (second compound 3.16 µM, first compound 0.0316 µM): 62.5% | viability, T/C (second compound 3.16 µM, first compound 0.1 µM): 40.4% | viability, T/C (second compound 3.16 µM, first compound 0.316 µM): 25.5% | viability, T/C (second compound 3.16 µM, first compound 1 µM): 29.4% | viability, T/C (second compound 3.16 µM, first compound 3.16 µM): 28.2% | viability, T/C (second compound 3.16 µM, first compound 10 µM): 26.8% | viability, T/C (second compound 10 µM, first compound 0.0316 µM): 63.9% | viability, T/C (second compound 10 µM, first compound 0.1 µM): 40.5% | viability, T/C (second compound 10 µM, first compound 0.316 µM): 26% | viability, T/C (second compound 10 µM, first compound 1 µM): 27.1% | viability, T/C (second compound 10 µM, first compound 3.16 µM): 30.1% | viability, T/C (second compound 10 µM, first compound 10 µM): 26.2%

CCc1c2c(nc3ccc(O)cc13)-c1cc3c(c(=O)n1C2)COC(=O)[C@]3(O)CC
viability, T/C (compound 0.00316 µM): 96.8% and 81.2% and 106% | viability, T/C (compound 0.01 µM): 92.7% and 44.1% and 89.9% | viability, T/C (compound 0.0316 µM): 66.5% and 33.8% and 61.6% | viability, T/C (compound 0.1 µM): 51.2% and 26.8% and 51.4% | viability, T/C (compound 0.316 µM): 29.8% and 16.6% and 34.1% | viability, T/C (compound 1 µM): 16.3% and 9.67% and 18%

C=CC(=O)N1CCN(c2nc(=O)n(-c3c(C)ccnc3C(C)C)c3nc(-c4c(O)cccc4F)c(F)cc23)C(C)C1 (stereo not drawn)
viability, T/C (compound 0.0316 µM): 104% and 100% and 91.5% | viability, T/C (compound 0.1 µM): 94.8% and 103% and 100% | viability, T/C (compound 0.316 µM): 97.3% and 99.3% and 98.2% | viability, T/C (compound 1 µM): 97.3% and 97.5% and 99.1% | viability, T/C (compound 3.16 µM): 103% and 90.9% and 104% | viability, T/C (compound 10 µM): 87.7% and 66.7% and 91.4% | IC50 (curve of compound): > 10000 nM
